Some test systems named below: KM20L2 colon; SNB-78 CNS; DMS 273 small cell lung; M19-MEL melanoma; RXF-631 renal; LXFL 529 NSCLC; MDA-N; XF 498 CNS; HOP-18 NSCLC.
Holding throughout (experiment): NCI anticancer screen, dose series, 48 h

“And” between values parts separate entries of the source, which are not always exact repeats. Equal entries are not always repeated.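 Values below derive from 48-hour exposures of cells grown in 96-well plates, with endpoints linearly interpolated between the two concentrations bracketing the appropriate inhibition level. Here, GI50 denotes the concentration required for 50% inhibition of growth. Definition used: TGI = concentration required for complete inhibition of growth.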 Bounds are passed on as bounds.

Regarding `O=C(N/N=C(/c1nc2ccc(Cl)cc2[nH]c1=O)C(O)c1ccc(Cl)cc1Cl)c1ccncc1` (stereo unspecified), the TGI in the experiment with KM20L2 colon, in the experiment with SNB-78 CNS, in the experiment with DMS 273 small cell lung, in the experiment on M19-MEL melanoma, in the experiment on RXF-631 renal and in the experiment on LXFL 529 NSCLC was > 100 µM each time.

For `S=c1nc(-c2nc(=S)[nH]c3c2CCCCCCCCCC3)c2c([nH]1)CCCCCCCCCC2`, the TGI in the experiment on MDA-N is > 100 µM.

With `CC1=NNC(=NCCN(C)C)C/C1=C/c1ccccc1Cl`, the TGI in the experiment on KM20L2 colon, with SNB-78 CNS, with XF 498 CNS, with HOP-18 NSCLC, with DMS 273 small cell lung and in the experiment with M19-MEL melanoma was > 100 µM each time. For the same compound, the TGI in the experiment with RXF-631 renal and with LXFL 529 NSCLC was > 100 µM throughout.

`COc1ccc2cccc(C(=O)c3ccc(C)c4c3CCC4)c2c1`: the TGI in the experiment with KM20L2 colon is > 100 µM; in the experiment with HOP-18 NSCLC it was > 100 µM; in the experiment with DMS 273 small cell lung, 70 µM; in the experiment with M19-MEL melanoma it was > 100 µM; in the experiment on RXF-631 renal it was 43.9 µM; in the experiment on LXFL 529 NSCLC it was > 100 µM.

As for `C/C1=C\[C@H](C)C[C@H](C)OC(=O)C[C@H](c2ccc(O)cc2)NC(=O)[C@@H](Cc2c(Br)[nH]c3ccccc23)N(C)C(=O)[C@H](C)NC(=O)[C@@H](C)C1`, the GI50 is 0.0277 µM in the experiment with KM20L2 colon; 0.0339 µM in the experiment on SNB-78 CNS; 0.0249 µM in the experiment with XF 498 CNS; 0.0414 µM in the experiment on M19-MEL melanoma; 0.047 µM in the experiment with RXF-631 renal; 0.0299 µM in the experiment on LXFL 529 NSCLC. Also, the TGI with KM20L2 colon is 10.7 µM; in the experiment with SNB-78 CNS, 0.795 µM and 0.163 µM; in the experiment on XF 498 CNS it was 0.448 µM and 0.0585 µM; in the experiment on DMS 273 small cell lung it was 0.83 µM; in the experiment with MDA-N it was 2.83 µM; in the experiment on M19-MEL melanoma it was 2.02 µM. The compound further returned a TGI with LXFL 529 NSCLC of 3.41 µM.

For the compound `CC(C)(C)N=C1CC(C)(C)c2ccccc2C(=Nc2ccccc2)S1`, the TGI was > 100 µM with KM20L2 colon; > 100 µM in the experiment with SNB-78 CNS; 45.5 µM with XF 498 CNS; > 100 µM in the experiment on DMS 273 small cell lung; > 100 µM with M19-MEL melanoma; > 100 µM in the experiment on LXFL 529 NSCLC.

In the case of `Cc1nc(C)c(C(=O)Nc2cccc3c2C(=O)NC3=O)cc1C(=O)Nc1cccc2c1C(=O)NC2=O`, the TGI in the experiment on KM20L2 colon, with SNB-78 CNS, in the experiment on XF 498 CNS, with HOP-18 NSCLC, in the experiment on DMS 273 small cell lung and in the experiment with M19-MEL melanoma was > 100 µM each time. Besides, the TGI in the experiment on LXFL 529 NSCLC is > 100 µM.

With `CN1CCn2c(Br)ccc2C1=O`, the TGI in the experiment with KM20L2 colon, with SNB-78 CNS, in the experiment on XF 498 CNS, with DMS 273 small cell lung, in the experiment with M19-MEL melanoma and with LXFL 529 NSCLC was > 100 µM each time.

As to `CC#C[C@@]1(O)CCCC[C@@H]1O`, the TGI in the experiment on KM20L2 colon, in the experiment on SNB-78 CNS, in the experiment on XF 498 CNS, with HOP-18 NSCLC, with DMS 273 small cell lung and with M19-MEL melanoma was > 100 µM throughout. In addition, the TGI in the experiment with RXF-631 renal is > 100 µM.

As for `CCCCc1c2c(nc3c1CCc1cc4c(nc1-3)-c1nc3c(c(CCCC)c1CC4)CCC/C3=C\c1ccccc1)/C(=C/c1ccccc1)CCC2`, the TGI in the experiment with KM20L2 colon is > 100 µM; with SNB-78 CNS it was > 100 µM; with XF 498 CNS, 66.6 µM; in the experiment with DMS 273 small cell lung, > 100 µM; in the experiment on M19-MEL melanoma it was > 100 µM; with LXFL 529 NSCLC, > 100 µM.

In the case of `CCC1C(C)c2c([nH]c3ccccc23)C2C(=O)N(c3ccccc3)C(=O)C21` (stereo unspecified), the TGI was determined as 67.6 µM with SNB-78 CNS; 36 µM in the experiment on XF 498 CNS; 37.4 µM in the experiment with DMS 273 small cell lung; 29.6 µM in the experiment with M19-MEL melanoma; 26.3 µM in the experiment on RXF-631 renal; 96.2 µM with LXFL 529 NSCLC.

As to `CN(C)c1ccc(/C=C2\C[C@H]3[C@@H]4CC=C5C[C@@H](N6CCCC6)CC[C@]5(C)[C@H]4CC[C@]3(C)[C@H]2O)cc1`, in the experiment on MDA-N, the GI50 was 2.87 µM; the TGI was 2.34 µM and 8.6 µM.

For the compound `c1ccc2c(CNCCCCCCNCc3cccc4ccccc34)cccc2c1`, the TGI with KM20L2 colon stood at 6.74 µM; in the experiment on SNB-78 CNS, 23.9 µM; in the experiment on XF 498 CNS it was 7.26 µM; in the experiment on HOP-18 NSCLC, 29.1 µM; in the experiment on DMS 273 small cell lung, 26.6 µM; with M19-MEL melanoma it was 14.3 µM. Also, the figures for the TGI in the experiment with RXF-631 renal and with LXFL 529 NSCLC were 9.46 µM and 3.39 µM, respectively.

With `CC(C)[C@@H]1C=C(c2ccccc2)c2ccccc2C1C(C#N)(C#N)C(C)C` (stereo partly specified), the TGI in the experiment on KM20L2 colon, in the experiment on SNB-78 CNS, in the experiment on XF 498 CNS, with HOP-18 NSCLC, in the experiment on DMS 273 small cell lung and in the experiment with M19-MEL melanoma was > 100 µM each time. For the same compound, the TGI with LXFL 529 NSCLC is > 100 µM.

`Cc1cccc(C(C)(C)C)c1NC(=O)/C(Cc1nc2ccc([N+](=O)[O-])cc2[nH]c1=O)=N/NC(=O)C[N+](C)(C)C`: the TGI in the experiment on MDA-N is > 100 µM.

Regarding `CCCCCCCCCCCC(=O)OCC1OC(n2cc(F)c(=O)[nH]c2=O)C(NC(=O)OCc2ccccc2)C(O)C1O` (stereo unspecified), the TGI in the experiment with KM20L2 colon was found to be 42.3 µM; with SNB-78 CNS, 87.7 µM; with DMS 273 small cell lung it was 36.2 µM; with M19-MEL melanoma, 37.2 µM; with LXFL 529 NSCLC, 34.3 µM.

On to `COC(=O)C(/C(=N/NC(=O)c1ccncc1)C(=O)Nc1ccccc1OC)c1nc2ccc(Cl)cc2[nH]c1=O` (stereo unspecified), for which the TGI in the experiment on MDA-N was > 100 µM.

Regarding `N#Cc1cccc(NC(=O)c2ccc(C(=O)O)c(C(=O)c3ccc(C(=O)O)c(C(=O)Nc4cccc(C#N)c4)c3)c2)c1`, the TGI in the experiment with KM20L2 colon, in the experiment with SNB-78 CNS, in the experiment on XF 498 CNS, in the experiment on HOP-18 NSCLC, in the experiment with DMS 273 small cell lung and in the experiment with M19-MEL melanoma was > 100 µM in each case. For the same compound, the TGI in the experiment on LXFL 529 NSCLC is > 100 µM.

Take `O=P(Oc1ccc(Cl)cc1)(Oc1ccc(Cl)cc1)N1CC1`: the TGI in the experiment on MDA-N is > 10 µM.

In the case of `O=C(O)c1c(O)c2cc(Br)ccc2oc1=O`, the TGI in the experiment with MDA-N was > 100 µM.

On to `Cc1ccc(C(=O)N(C(C)C)C(C)C)cc1N=NN(C)C`, for which the TGI in the experiment on KM20L2 colon, with SNB-78 CNS, in the experiment on DMS 273 small cell lung, in the experiment on MDA-N, in the experiment with M19-MEL melanoma and with LXFL 529 NSCLC was > 100 µM each time.

The values are drawn from PubChem BioAssay (NCI).
